Test in all cases: NCI anticancer screen, dose series, 48 h
Test [1] deals with SF-268.
Test [2] has as its system MOLT-4.
Test [3] relates to OVCAR-5.
Test [4] relates to TK-10.
Test [5] has as its system UO-31.
For test [6], the system named is HCC 2998.
For test [7], the system named is SK-MEL-5.
For test [8], the system named is K562.
In test [9] the test system is UACC-62.
Test [10] concerns MDA-MB-435.
The subject of test [11] is HCT-15.
In test [12] the test system is EKVX.
In test [13] the test system is BT-549.
In test [14] the test system is SNB-19.
For test [15], the system named is SN12C.
Test [16] concerns OVCAR-3.
The subject of test [17] is OVCAR-8.
For test [18], the system named is HCT-116.
For test [19], the system named is SF-539.
Test [20] has as its system NCI-H23.

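Results reflect a 48-hour exposure of cells in 96-well plates to compound at five concentrations. GI50 marks 50% less growth.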 Activity calls are given as the source filed them. Rule as the data show it: active = GI50 up to about 1.1 µM and inactive = higher. Some results are limits rather than exact numbers.

Take `S=C1c2ccccc2N=C(NC2CCCC2)C2CSCN12` (centres undefined): the GI50 in [1] is 49.2 µM (inactive); in [2], 26.3 µM (inactive); in test [3], > 100 µM (inactive); in test [4] it was > 100 µM (inactive); in test [5], 65.2 µM (inactive); in test [6], 65.6 µM (inactive). Besides, the GI50 in test [7] is 49.2 µM (inactive); in test [8], 39.8 µM (inactive); in [9], 43.5 µM (inactive); in test [10], 76 µM (inactive); in test [11], above 100 µM; in [12] it was 37.2 µM (inactive). For the same compound, the GI50 in test [13] was > 100 µM (inactive); in test [14], > 100 µM (inactive); in test [15] it was > 100 µM (inactive); in [16], 97.1 µM (inactive); in test [17], > 100 µM (inactive); in test [18] it was 80.7 µM (inactive).
`O=[N+]([O-])c1ccc2c(c1)C(N1CCN(CCO)CC1)Cc1ccc(F)cc1S2` (centres undefined): the GI50 is 13.5 µM (inactive) in [1]; 1.04 µM (active) in test [2]; 13.4 µM (inactive) in [3]; 6.22 µM (inactive) in test [19]; 13.7 µM (inactive) in test [4]; 4.39 µM (inactive) in test [5]. The GI50 in test [6] was 2.58 µM (inactive); in test [7], 1.8 µM (inactive); in test [8], 2.29 µM (inactive); in [9], 2.49 µM (inactive); in [11], 5.93 µM; in test [12] it was 11.2 µM (inactive). Besides, the GI50 is 10.8 µM (inactive) in test [13]; 10.7 µM (inactive) in test [14]; 11.5 µM (inactive) in test [15]; 16.4 µM (inactive) in test [16]; 11.3 µM (inactive) in test [17]; 13.5 µM (inactive) in test [20]. Also, the GI50 in [18] was 5 µM (inactive).
Turning to `Cc1cc(S(N)(=O)=O)c(S/C(=N\Nc2ccc([N+](=O)[O-])cc2)c2ccc(Cl)cc2)cc1Cl`, the GI50 in [1] is 2.3 µM (inactive); in [2], 4.1 µM (inactive); in test [3], 2.64 µM (inactive); in test [19] it was 1.96 µM (inactive); in test [4] it was 1.79 µM (inactive); in [5] it was 4.42 µM (inactive). For the same compound, the GI50 in test [7] is 3.48 µM (inactive); in [8], 3.41 µM (inactive); in [9] it was 4.57 µM (inactive); in test [10], 2.27 µM (inactive); in test [11], 4.3 µM; in test [12], 6.19 µM (inactive). Moreover, the GI50 in [13] is 4.65 µM (inactive); in test [14], 3.33 µM (inactive); in test [15], 3.23 µM (inactive); in test [16] it was 1.74 µM (inactive); in test [20] it was 2.25 µM (inactive); in test [18], 3.15 µM (inactive).
Regarding `CC1(C)Cc2c(cnn2-c2ccc(C(F)(F)F)cc2)-c2[nH]c(-c3ccc(O)cc3)nc21`, the GI50 in [1] is 9.16 µM (inactive); in [2], 2.05 µM (inactive); in [3] it was 17.8 µM (inactive); in [4], 16.5 µM (inactive); in test [5] it was 15.3 µM (inactive); in test [6], 15.7 µM (inactive). For the same compound, the GI50 in test [7] was 16.9 µM (inactive); in [8] it was 5.15 µM (inactive); in test [9], 16.2 µM (inactive); in [10], 17.2 µM (inactive); in [11], 11.1 µM; in test [12], 20.4 µM (inactive). The GI50 was 12.8 µM (inactive) in test [13]; 16.6 µM (inactive) in [14]; 16.7 µM (inactive) in test [15]; 13.9 µM (inactive) in [16]; 20.8 µM (inactive) in [17]; 18.2 µM (inactive) in test [20]. Moreover, the GI50 in test [18] is 13.1 µM (inactive).
Turning to `Cc1cc(C)nc(SCC(=O)OC2CC(C)CCC2C(C)C)n1` (centres undefined), the GI50 was 37 µM (inactive) in test [1]; 16.7 µM (inactive) in test [2]; 22.3 µM (inactive) in [3]; 34.3 µM (inactive) in test [4]; 18.7 µM (inactive) in test [5]; 15.2 µM (inactive) in test [7]. Moreover, the GI50 in test [8] was 20 µM (inactive); in test [9] it was 14.6 µM (inactive); in [10] it was 23.6 µM (inactive); in test [11] it was 15.6 µM; in test [12], 17.9 µM (inactive); in test [13], 45.9 µM (inactive). For the same compound, the GI50 is 18.7 µM (inactive) in [14]; 19.1 µM (inactive) in [15]; 14.3 µM (inactive) in test [16]; 38.3 µM (inactive) in test [17]; 24.8 µM (inactive) in test [20]; 19.2 µM (inactive) in [18].
`O=S1(=O)C(c2ccccc2)C(N2CCCCC2)C1C1CC2c3ccccc3C1c1ccccc12` (centres undefined): the GI50 in test [1] is > 100 µM (inactive); in test [2], 5.47 µM (inactive); in test [3], > 100 µM (inactive); in [19], > 100 µM (inactive); in test [4] it was > 100 µM (inactive); in [5], > 54.7 µM (inactive). In addition, the GI50 in [7] is 45.1 µM (inactive); in test [8], 5.56 µM (inactive); in test [9] it was > 100 µM (inactive); in test [10], > 30.7 µM (inactive); in [11], above 48.5 µM; in test [12], > 100 µM (inactive). Further, the GI50 in [13] was > 100 µM (inactive); in test [14], > 100 µM (inactive); in test [15], > 35.8 µM (inactive); in test [16] it was 17.6 µM (inactive); in test [17] it was > 100 µM (inactive); in [20], > 100 µM (inactive). In test [18], the GI50 was 5.69 µM (inactive).
For `COC(=O)C(CC12CC3CC(CC(C3)C1)C2)NC(=O)C(N)CC(=O)O` (centres undefined), the GI50 in test [1], in test [2], in test [3], in test [4], in [5] and in [6] was > 100 µM (inactive) in each case. Also, the GI50 is > 100 µM (inactive) in test [7]; > 100 µM (inactive) in [8]; > 100 µM (inactive) in [9]; > 100 µM (inactive) in [10]; above 100 µM in [11]; > 100 µM (inactive) in [12]. For the same compound, the GI50 in test [13], in test [14], in [15], in test [17], in test [20] and in test [18] was > 100 µM (inactive) throughout.
For the compound `COC1=CC2C(c3cc4ccccc4n3S(=O)(=O)c3ccccc3)CC1CN2C(=O)OCc1ccccc1` (centres undefined), the GI50 in test [3] is 18.2 µM (inactive); in test [4] it was 67.1 µM (inactive); in test [5] it was 27.2 µM (inactive); in test [6] it was 36.5 µM (inactive); in test [7], 25.6 µM (inactive); in [8], 33.3 µM (inactive). Also, the GI50 in test [9] was 29.8 µM (inactive); in test [10], 24.2 µM (inactive); in test [11], 31.1 µM; in [12] it was 18.9 µM (inactive); in test [13], 25 µM (inactive); in [15], 32 µM (inactive). For the same compound, the GI50 in test [16] was 19.5 µM (inactive); in test [17], 50.8 µM (inactive); in test [20] it was 29.7 µM (inactive); in test [18] it was 28.2 µM (inactive).
Consider `CCOc1cc(C2CC(c3ccc(NS(=O)(=O)c4cc([N+](=O)[O-])ccc4C)cc3)=NN2c2ccc([N+](=O)[O-])cc2[N+](=O)[O-])ccc1O` (centres undefined), for which the GI50 in test [1] was 11.1 µM (inactive); in test [2], 23.3 µM (inactive); in [3], 23.4 µM (inactive); in test [19], 7.45 µM (inactive); in [4] it was 15.7 µM (inactive); in test [5], 14.6 µM (inactive). For the same compound, the GI50 is 10.4 µM (inactive) in test [7]; 21.3 µM (inactive) in test [8]; 11.6 µM (inactive) in test [10]; 19.3 µM in [11]; 4.71 µM (inactive) in test [12]; 18 µM (inactive) in [13]. Also, the GI50 in [14] is 7.46 µM (inactive); in test [15], 3.15 µM (inactive); in test [16] it was 11.4 µM (inactive); in test [17] it was 5.22 µM (inactive); in [20], 16.7 µM (inactive); in test [18], 8.65 µM (inactive).
For `O=C(O)CSC(CC(=O)c1ccc(Cl)cc1)c1ccc(Cl)cc1` (centres undefined), the GI50 is 25.1 µM (inactive) in test [1]; 6.81 µM (inactive) in test [2]; > 100 µM (inactive) in [3]; 36.6 µM (inactive) in test [19]; 21.4 µM (inactive) in [4]; 34.6 µM (inactive) in [5]. The GI50 in [7] is 34.4 µM (inactive); in test [8], 32.1 µM (inactive); in test [9], 39.2 µM (inactive); in test [10] it was 22.1 µM (inactive); in test [11], 22.1 µM; in test [12], 41 µM (inactive). The GI50 was 29.9 µM (inactive) in [13]; 42 µM (inactive) in test [14]; 43 µM (inactive) in test [15]; 20.7 µM (inactive) in [16]; 22.3 µM (inactive) in test [17]; 42.7 µM (inactive) in test [20]. Besides, in test [18], the GI50 was 5.77 µM (inactive).
With `O=[N+]([O-])/C(C(Cl)=C(Cl)Cl)=C(\N1CCOCC1)n1nnc2ccccc21`, the GI50 in [1] is 18.3 µM (inactive); in test [2] it was 33.5 µM (inactive); in test [3] it was 21.1 µM (inactive); in test [19], 15.4 µM (inactive); in [4], 29.3 µM (inactive); in [5] it was 17.8 µM (inactive). Besides, the GI50 in test [7] is 17.6 µM (inactive); in test [9], 23.3 µM (inactive); in [10], 17 µM (inactive); in [11], 15.4 µM; in test [12], 17.9 µM (inactive); in test [13], 19 µM (inactive). The GI50 in test [14] was 14.3 µM (inactive); in [15], 19.3 µM (inactive); in test [16] it was 19.8 µM (inactive); in test [20], 16.7 µM (inactive); in test [18], 18.7 µM (inactive).

The record behind these values is ChEMBL document CHEMBL1201862, “PubChem BioAssay data set” (2004).
